Laboratory results from PMC6375636, “Monotherapy with a low-dose lipopeptide HIV fusion inhibitor maintains long-term viral suppression in rhesus macaques” (PLoS Pathogens, 2019).
Like-named read-outs stand apart in the source and are kept apart here. Peptide text beside a SMILES is read from it. * marks the point of attachment. Stearoyl = CCCCCCCCCCCCCCCCCC(=O)*

How the values were obtained:
Type in all cases: cell-based
[1] = system: HIV-1 pseudovirus, primary Env 246_F3_C10_2; settings: Env 246_F3_C10_2, subtype A/C; mean ± SD of 3 assays in triplicate
How it was run: (§1)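 Steps: transfect HEK293T to produce virus, harvesting supernatants at 48 h; titrate on TZM-bl; mix 100 TCID50 with inhibitor in threefold dilutions for 1 h at room temperature; infect TZM-bl cells, 10^4 per well; after 48 h at 37°C, measure luciferase.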

[2] = system: HIV-1 pseudovirus, primary Env JRFL; settings: subtype B, mean ± SD of 3 assays in triplicate
How it was run: as §1

HIV-1 NL4-3 = settings: Table 2; NL4-3, subtype B, X4; mean ± SD of 3 assays in triplicate
How it was run: as §1

[3] = system: HIV-1 pseudovirus, primary Env TRO.11; settings: Env TRO.11, subtype B; mean ± SD of 3 assays in triplicate
How it was run: as §1

HIV-1 R3A = settings: Table 2, subtype B, R5X4, mean ± SD of 3 assays in triplicate
How it was run: as §1

HIV-1 CH040.c/2625 = settings: Table 2; CH040.c/2625, subtype B, R5; mean ± SD of 3 assays in triplicate
How it was run: as §1

[4] = system: HIV-1 pseudovirus, primary Env CE1176_A3; settings: Env CE1176_A3, subtype C; mean ± SD of 3 assays in triplicate
How it was run: as §1

[5] = system: HIV-1 pseudovirus, primary Env SHX335.24; settings: Env SHX335.24, subtype A/E; mean ± SD of 3 assays in triplicate
How it was run: as §1

[6] = system: replication-competent HIV-1 isolates; settings: mean of the ten isolates of Table 2; read-out: Mean IC50 over the replication-competent isolates
How it was run: as §1

[7] = system: HIV-1 pseudovirus, primary Env CH64.20; settings: Env CH64.20, subtype B/C; mean ± SD of 3 assays in triplicate
How it was run: as §1

[8] = system: HIV-1 pseudovirus, primary Env 43–22; settings: Env 43–22, subtype B'; mean ± SD of 3 assays in triplicate
How it was run: as §1

[9] = system: HIV-1 pseudovirus, primary Env Du156; settings: Env Du156, subtype C; mean ± SD of 3 assays in triplicate
How it was run: as §1

[10] = system: HIV-1 pseudovirus, primary Env CE703010217_B6; settings: Env CE703010217_B6, subtype C; mean ± SD of 3 assays in triplicate
How it was run: as §1

[11] = system: HIV-1 pseudovirus, primary Env CH120.6; settings: Env CH120.6, subtype B/C; mean ± SD of 3 assays in triplicate
How it was run: as §1

[12] = system: HIV-1 pseudovirus, primary Env SC422661.8; settings: Env SC422661.8, subtype B; mean ± SD of 3 assays in triplicate
How it was run: as §1

[13] = system: HIV-1 pseudovirus, primary Env pREJO4541; settings: Env pREJO4541, subtype B; mean ± SD of 3 assays in triplicate
How it was run: as §1

HIV-1JRCSF = molecular target: HIV-1JRCSF
How it was run: as §1

[14] = system: HIV-1 pseudovirus, primary Env X2278_C2_B6; settings: Env X2278_C2_B6, subtype B; mean ± SD of 3 assays in triplicate
How it was run: as §1

[15] = system: HIV-1 pseudovirus, primary Env AC10.0.29; settings: Env AC10.0.29, subtype B; mean ± SD of 3 assays in triplicate
How it was run: as §1

HIV-1 WITO.c/2474 = settings: Table 2; WITO.c/2474, subtype B, R5; mean ± SD of 3 assays in triplicate
How it was run: as §1

[16] = system: HIV-1 pseudovirus, primary Env X1632-S2-B10; settings: Env X1632-S2-B10, subtype G; mean ± SD of 3 assays in triplicate
How it was run: as §1

[17] = system: HIV-1 pseudovirus, primary Env B04; settings: Env B04, subtype B'; mean ± SD of 3 assays in triplicate
How it was run: as §1

[18] = system: HIV-1 pseudovirus, primary Env 398-F1_F6_20; settings: Env 398-F1_F6_20, subtype A; mean ± SD of 3 assays in triplicate
How it was run: as §1

[19] = system: HIV-1 pseudovirus, primary Env CH070.1; settings: Env CH070.1, subtype B/C; mean ± SD of 3 assays in triplicate
How it was run: as §1

[20] = system: HIV-1 pseudovirus, primary Env 92RW020; settings: Env 92RW020, subtype A; mean ± SD of 3 assays in triplicate
How it was run: as §1

[21] = system: HIV-1 pseudovirus, primary Env B01; settings: Env B01, subtype B'; mean ± SD of 3 assays in triplicate
How it was run: as §1

[22] = Fig 1, replication-competent virus, mean ± SD of three assays in triplicate, read-out: Anti-HIV activity (IC50, pM) JRCSF infection
[23] = Table 2, JR-CSF, subtype B, R5, mean ± SD of 3 assays in triplicate, read-out: Mean IC50

Compound | IC50 [1] [pM] | IC50 [2] [pM] | IC50 [3] [pM] | IC50 (HIV-1 R3A) [pM] | IC50 (HIV-1 CH040.c/2625) [pM] | IC50 [4] [pM] | IC50 [5] [pM] | IC50 [6] [pM] | IC50 [7] [pM] | IC50 [8] [pM] | IC50 [9] [pM] | IC50 [10] [pM] | IC50 [11] [pM] | IC50 [12] [pM] | IC50 [13] [pM] | IC50 (HIV-1JRCSF; [22]) [pM] | IC50 (HIV-1JRCSF; [23]) [pM] | IC50 [14] [pM] | IC50 [15] [pM] | IC50 (HIV-1 WITO.c/2474) [pM] | other results
CCCCCCCCCCCCCCCCCC(=O)NCCCC[C@H](NC(=O)[C@H](CCC(=O)O)NC(=O)[C@H](CC(C)C)NC(=O)[C@H](CCCCN)NC(=O)[C@H](CCCCN)NC(=O)[C@H](CC(C)C)NC(=O)[C@H](CCC(=O)O)NC(=O)[C@H](CCC(=O)O)NC(=O)[C@H](CCC(=O)O)NC(=O)[C@H](CC(N)=O)NC(=O)[C@H](CCCCN)NC(=O)[C@H](CCCCN)NC(=O)[C@H](CCC(N)=O)NC(=O)[C@H](CCC(N)=O)NC(=O)[C@H](CCC(=O)O)NC(=O)[C@H](CCC(=O)O)NC(=O)[C@H](C)NC(=O)[C@H](CCCCN)NC(=O)[C@H](CCCCN)NC(=O)[C@H](CC(C)C)NC(=O)[C@H](CC(C)C)NC(=O)[C@H](CCC(=O)O)NC(=O)[C@H](CCC(=O)O)NC(=O)[C@@H](NC(C)=O)[C@@H](C)CC)C(N)=O [LP-90] (Ac-IEELLKKAEEQQKKNEEELKKLEK(Stearoyl)-NH2) | 6.84 ± 0.47 | 12.2 ± 0.83 | 8.95 ± 2.3 | 9.32 ± 1.21 | 50.2 ± 13.8 | 8.77 ± 1.95 | 3.01 ± 0.2 | 23.7 | 7.72 ± 2.67 | 3.9 ± 1.33 | 3.63 ± 0.67 | 11.2 ± 0.83 | 25.4 ± 1.62 | 38.5 ± 7.05 | 15.9 ± 3.13 | 5.4 | 9.33 ± 1.97 | 1.04 ± 0.22 | 4.42 ± 0.28 | 4.06 ± 1.67 | IC50 (HIV-1 NL4-3): 76.8 ± 19 pM; IC50 [16]: 28.4 ± 4.11 pM; IC50 [17]: 17.5 ± 7.72 pM; IC50 [18]: 6.32 ± 0.46 pM; IC50 [19]: 31.7 ± 2.04 pM; IC50 [20]: 15.1 ± 0.62 pM; IC50 [21]: 17.9 ± 1.58 pM
enfuvirtide [Lipopeptide T-20, reference compound] | 36200 ± 3700 | 9620 ± 502 | 7050 ± 1330 | 6730 ± 1080 | 30900 ± 3810 | 8400 ± 496 | 40600 ± 1420 | 15300 | 33300 ± 1180 | 23200 ± 592 | 15700 ± 1580 | 41800 ± 2220 | 48100 ± 4920 | 16100 ± 2240 | 55000 ± 2900 | 4460 ± 1400 | 2970 ± 788 | 5660 ± 74.4 | 2840 ± 103 | 7810 ± 1620 | IC50 [16]: 15600 ± 2010 pM; IC50 [17]: 5650 ± 366 pM; IC50 [18]: 19400 ± 1710 pM; IC50 [19]: 165000 ± 28300 pM; IC50 [20]: 3240 ± 232 pM; IC50 [21]: 84400 ± 3690 pM
